15 molecules from patent publication US8912189B2, “Pyridopyrazine derivatives and their use” (Aeterna Zentaris GmbH, priority 2011, dated 2014) can be followed below.

Turning to `CCNC(=S)Nc1ccc2ncc(-c3cnn(Cc4ccc(Cl)cc4)c3)nc2n1` [Compound 50, 1-{3-[1-(4-Chloro-benzyl)-1H-pyrazol-4-yl]-pyrido[2,3-b]pyrazin-6-yl}-3-ethyl-thiourea], the melting point worked out at 249 °C.

With `Cc1cccc(Cn2cc(-c3cnc4ccc(NC(=S)NCC(F)(F)F)nc4n3)cn2)c1` [Compound 51, 1-{3-[1-(3-Methyl-benzyl)-1H-pyrazol-4-yl]-pyrido[2,3-b]pyrazin-6-yl}-3-(2,2,2-trifluoro-ethyl)-thiourea], the melting point was found to be 249 °C.

Molecule `CCNC(=S)Nc1ccc2ncc(-c3cnn(Cc4ccccc4C)c3)nc2n1` [Compound 52, 1-Ethyl-3-{3-[1-(2-methyl-benzyl)-1H-pyrazol-4-yl]-pyrido[2,3-b]pyrazin-6-yl}-thiourea] gave a melting point of 252 to 255 °C.

Turning to `CCNC(=S)Nc1ccc2ncc(-c3cnn(CCc4ccccc4)c3)nc2n1` [Compound 53, 1-Ethyl-3-[3-(1-phenethyl-1H-pyrazol-4-yl)-pyrido[2,3-b]pyrazin-6-yl]-thiourea], the melting point was in the range of 231 to 233 °C.

`CCNC(=O)Nc1ccc2ncc(-c3cnn(Cc4ccc(O)c(OC)c4)c3)nc2n1` [Compound 54, 1-Ethyl-3-{3-[1-(4-hydroxy-3-methoxy-benzyl)-1H-pyrazol-4-yl]-pyrido[2,3-b]pyrazin-6-yl}-urea] showed a melting point of 237 °C.

`CCNC(=O)Nc1ccc2ncc(-c3cnn(Cc4ccc(OC)c(O)c4)c3)nc2n1` [Compound 56, 1-Ethyl-3-{3-[1-(3-hydroxy-4-methoxy-benzyl)-1H-pyrazol-4-yl]-pyrido[2,3-b]pyrazin-6-yl}-urea] gave a melting point of 250 °C.

`CCNC(=S)Nc1ccc2ncc(-c3cnn(Cc4ccc(OC)c(O)c4)c3)nc2n1` [Compound 57, 1-Ethyl-3-{3-[1-(3-hydroxy-4-methoxy-benzyl)-1H-pyrazol-4-yl]-pyrido[2,3-b]pyrazin-6-yl}-thiourea] yielded a melting point of 230 °C.

The molecule `CCNC(=O)Nc1ccc2ncc(-c3cnn(Cc4cccc(S(C)(=O)=O)c4)c3)nc2n1` [Compound 64, 1-Ethyl-3-{3-[1-(3-methanesulfonyl-benzyl)-1H-pyrazol-4-yl]-pyrido[2,3-b]pyrazin-6-yl}-urea] registered a melting point of 218 °C.

`CCNC(=O)Nc1ccc2ncc(-c3cnn(Cc4cccc(OCCOC)c4)c3)nc2n1` [Compound 66, 1-Ethyl-3-(3-{1-[3-(2-methoxy-ethoxy)-benzyl]-1H-pyrazol-4-yl}-pyrido[2,3-b]pyrazin-6-yl)-urea] gave a melting point of 201 °C.

Regarding `CCNC(=O)Nc1ccc2ncc(-c3csc(C(=O)O)c3)nc2n1` [Compound 212, 4-[6-(3-Ethyl-ureido)-pyrido[2,3-b]pyrazin-3-yl]-thiophene-2-carboxylic acid], the melting point was 250 °C (dec.).

With `CCNC(=O)Nc1ccc2ncc(-c3ccc(CO)s3)nc2n1` [Compound 396, 1-Ethyl-3-[3-(5-hydroxymethyl-thiophen-2-yl)-pyrido[2,3-b]pyrazin-6-yl]-urea], the melting point stood at 222 °C.

Take `CCNC(=O)Nc1ccc2ncc(-c3cnn(CCC(N)=O)c3)nc2n1` [Compound 404, 3-{4-[6-(3-Ethyl-ureido)-pyrido[2,3-b]pyrazin-3-yl]-pyrazol-1-yl}-propionamide]: the melting point came out at 247 °C.

As to `CCNC(=O)Nc1ccc2ncc(-c3cnn(CCNC(=O)OC(C)(C)C)c3)nc2n1` [Compound 406, (2-{4-[6-(3-Ethyl-ureido)-pyrido[2,3-b]pyrazin-3-yl]-pyrazol-1-yl}ethyl)-carbamic acid tert-butyl ester], the melting point is 235 °C.

For the molecule `CCNC(=O)Nc1ccc2ncc(-c3ccc(C)o3)nc2n1` [Compound 416, 1-Ethyl-3-[3-(5-methyl-furan-2-yl)-pyrido[2,3-b]pyrazin-6-yl]-urea], the melting point turned out to be 242 °C.

With `CCNC(=O)Nc1ccc2ncc(-c3ccoc3)nc2n1` [Compound 432, 1-Ethyl-3-(3-furan-3-yl-pyrido[2,3-b]pyrazin-6-yl)-urea], the melting point is 240 °C.
